Data on 25 compounds can be found in patent US12528761B2, “Thyromimetics” (Autobahn Therapeutics, Inc., priority 2020, dated 2026).

In this experiment the target is T1, recombinant human FAAH (rhFAAH) (Homo sapiens, UniProt O00519).
T1 construct: purchased Cayman Chemical (Ann Arbor, MI, USA)
T1 sequence (O00519 1-579): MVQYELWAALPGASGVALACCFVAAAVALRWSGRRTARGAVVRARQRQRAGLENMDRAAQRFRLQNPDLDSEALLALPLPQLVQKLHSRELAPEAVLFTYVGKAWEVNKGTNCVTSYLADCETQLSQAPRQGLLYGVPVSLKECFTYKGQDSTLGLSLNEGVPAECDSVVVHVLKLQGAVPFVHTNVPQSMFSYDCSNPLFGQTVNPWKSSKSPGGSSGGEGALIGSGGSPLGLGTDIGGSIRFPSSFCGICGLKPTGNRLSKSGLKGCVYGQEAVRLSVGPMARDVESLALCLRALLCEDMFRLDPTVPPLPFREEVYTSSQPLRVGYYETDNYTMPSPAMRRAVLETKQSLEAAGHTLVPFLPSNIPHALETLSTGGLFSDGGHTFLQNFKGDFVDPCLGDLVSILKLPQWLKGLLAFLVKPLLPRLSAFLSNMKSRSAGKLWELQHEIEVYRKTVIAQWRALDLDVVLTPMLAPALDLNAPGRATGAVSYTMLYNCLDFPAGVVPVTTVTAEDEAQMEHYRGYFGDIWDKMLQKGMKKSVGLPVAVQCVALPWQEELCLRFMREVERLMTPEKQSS
The experiment in a line: FAAH substrate evaluation (formation of acid metabolite, LC-MS/MS). Format: biochemical. Details: key: A: ke is equal to or less than 1.0; B: ke is greater than 1.0 and less than or equal to 2.5; C: ke is greater than 2.5; NC: no conversion. The conditions noted are these: 0.5 ng/μL rhFAAH, 1 μM test compound, pH 8.0, room temperature, 0-60 minutes. The protocol:
Purified recombinant human FAAH (rhFAAH) was purchased from Cayman Chemical (Ann Arbor, MI, USA). The total volume for each incubation was 400 μL containing a final 0.5 ng/μL rhFAAH, 1 μM test compound, 1.25% ethanol or 1 μM PF-3845 (FAAH inhibitor), and 0.1% bovine serum albumin in Tris-EDTA buffer at pH 8.0). The positive control was LL-341001. The incubation was conducted at the room temperature. At 0, 5, 15, 30 and 60 minutes, an aliquot of 30 μL reaction mixtures was removed and mixed with 300 μL acetonitrile containing 5 ng/mL terfenadine and 10 ng/mL tolbutamide as internal standards to quench the reaction. The resulting mixture was centrifuged at 4000 rpm, 4° C. for 15 minutes, and 100 μL supernatant was ready for LC-MS/MS analysis to measure the formation of acid metabolite.
Acquity Ultra Performance LC system from Waters was used for sample analysis. The chromatography was performed on a reverse phase Kinetex 2.6 μm C18 column, 2.1×30 mm, 100 Å. The mobile phase A comprised of 0.1% formic acid in water and mobile phase B comprised of 0.1% formic acid in acetonitrile with a 2-min run time at the flow rate of 0.8 mL/min for the acid metabolite from positive control or a 1.5 min run time at the flow rate of 0.9 mL/min for the acid metabolite of test compounds. The mass spectrometer (API-5500 and API Q Trap 4000 Applied Biosystems/MDS SCIEX Instruments, Framingham, MA, USA) was operated under ESI positive or negative ion MRM mode.
The formation of acid metabolite was monitored and quantified using one calibration point of 1 μM. The observed rate constant (ke) for the acid metabolite formation was calculated by plotting the metabolite concentration versus time of incubation with the slope being ke and is shown in Table 4.
As to `Cc1noc(NC(=O)CSc2cc(Cl)c(Cc3ccc(O)c(C(C)C)c3)c(Cl)c2)c1C` [Compound 168, 2-((3,5-dichloro-4-(4-hydroxy-3-isopropylbenzyl)phenyl)thio)-N-(3,4-dimethylisoxazol-5-yl)acetamide], the “ke, observed rate constant for the acid metabolite formation” value (shortened to “ke, observed rate constant”) is “B (ke is greater than 1.0 and less than or equal to 2.5)”.

With `COc1ccc(NC(=O)CSc2cc(Cl)c(Cc3ccc(O)c(C(C)C)c3)c(Cl)c2)nn1` [Compound 169, 2-((3,5-dichloro-4-(4-hydroxy-3-isopropylbenzyl)phenyl)thio)-N-(6-methoxypyridazin-3-yl)acetamide], the “ke, observed rate constant” value is reported as “A (ke is equal to or less than 1.0)”.

Take `CC(C)c1cc(Cc2c(Cl)cc(SCC(=O)Nc3cccnc3)cc2Cl)ccc1O` [Compound 170, 2-((3,5-dichloro-4-(4-hydroxy-3-isopropylbenzyl)phenyl)thio)-N-(pyridin-3-yl)acetamide]: the “ke, observed rate constant” value was “C (ke is greater than 2.5)”.

Regarding `CC(C)c1cc(Cc2c(Cl)cc(SCC(=O)Nc3cnccn3)cc2Cl)ccc1O` [Compound 171, 2-((3,5-dichloro-4-(4-hydroxy-3-isopropylbenzyl)phenyl)thio)-N-(pyrazin-2-yl)acetamide], the “ke, observed rate constant” value is “B (ke is greater than 1.0 and less than or equal to 2.5)”.

As for `CC(C)c1cc(Cc2c(Cl)cc(SCC(=O)Nc3ccncc3)cc2Cl)ccc1O` [Compound 172, 2-((3,5-dichloro-4-(4-hydroxy-3-isopropylbenzyl)phenyl)thio)-N-(pyridin-4-yl)acetamide], the “ke, observed rate constant” value is “C (ke is greater than 2.5)”.

For `CC(C)c1cc(Cc2c(Cl)cc(SCC(=O)Nc3ccnnc3)cc2Cl)ccc1O` [Compound 173, 2-((3,5-dichloro-4-(4-hydroxy-3-isopropylbenzyl)phenyl)thio)-N-(pyridazin-4-yl)acetamide], the “ke, observed rate constant” value was “C (ke is greater than 2.5)”.

As for `CC(C)c1cc(Cc2c(Cl)cc(SCC(=O)Nc3cccnn3)cc2Cl)ccc1O` [Compound 174, 2-((3,5-dichloro-4-(4-hydroxy-3-isopropylbenzyl)phenyl)thio)-N-(pyridazin-3-yl)acetamide], the “ke, observed rate constant” value was “C (ke is greater than 2.5)”.

For the compound `CNC(=O)CNc1cc(Cl)c(Cc2ccc(O)c(C(C)C)c2)c(Cl)c1` [Compound 175, 2-((3,5-dichloro-4-(4-hydroxy-3-isopropylbenzyl)phenyl)amino)-N-methylacetamide], the “ke, observed rate constant” value is listed as “A (ke is equal to or less than 1.0)”.

With `C=C(Cc1cc(Cl)c(Cc2ccc(O)c(C(C)C)c2F)c(Cl)c1)C(=O)NC` [Compound 177, 2-(3,5-dichloro-4-(2-fluoro-4-hydroxy-3-isopropylbenzyl)benzyl)-N-methylacrylamide], the “ke, observed rate constant” value is recorded as “NC”.

On to `CC(C)c1cc(Cc2c(Cl)cc(SCC(=O)NC34CC(C3)C4)cc2Cl)ccc1O` [Compound 178, N-(bicyclo[1.1.1]pentan-1-yl)-2-((3,5-dichloro-4-(4-hydroxy-3-isopropylbenzyl)phenyl)thio)acetamide], for which the “ke, observed rate constant” value is listed as “NC”.

Regarding `CC(C)c1cc(Cc2c(Cl)cc(SCC(N)=O)cc2Cl)ccc1O` [Compound 179, 2-((3,5-dichloro-4-(4-hydroxy-3-isopropylbenzyl)phenyl)thio)acetamide], the “ke, observed rate constant” value is given as “C (ke is greater than 2.5)”.

On to `CC(C)c1cc(Cc2c(Cl)cc(SCC(=O)NC3CC3)cc2Cl)ccc1O` [Compound 180, N-cyclopropyl-2-((3,5-dichloro-4-(4-hydroxy-3-isopropylbenzyl)phenyl)thio)acetamide], for which the “ke, observed rate constant” value is reported as “C (ke is greater than 2.5)”.

For the compound `CC(C)c1cc(Cc2c(Cl)cc(SCC(=O)NCC3CC3)cc2Cl)ccc1O` [Compound 181, N-(cyclopropylmethyl)-2-((3,5-dichloro-4-(4-hydroxy-3-isopropylbenzyl)phenyl)thio)acetamide], the “ke, observed rate constant” value is listed as “A (ke is equal to or less than 1.0)”.

For `CC(C)c1cc(Cc2c(Cl)cc(SCC(=O)N3CCCC3)cc2Cl)ccc1O` [Compound 182, 2-((3,5-dichloro-4-(4-hydroxy-3-isopropylbenzyl)phenyl)thio)-1-(pyrrolidin-1-yl)ethan-1-one], the “ke, observed rate constant” value is listed as “A (ke is equal to or less than 1.0)”.

On to `CC(C)c1cc(Cc2c(Cl)cc(SCC(=O)N3CCC3)cc2Cl)ccc1O` [Compound 183, 1-(azetidin-1-yl)-2-((3,5-dichloro-4-(4-hydroxy-3-isopropylbenzyl)phenyl)thio)ethan-1-one], for which the “ke, observed rate constant” value is listed as “A (ke is equal to or less than 1.0)”.

As to `CC(C)c1cc(Cc2c(Cl)cc(SCC(=O)NCc3ccccc3)cc2Cl)ccc1O` [Compound 184, N-benzyl-2-((3,5-dichloro-4-(4-hydroxy-3-isopropylbenzyl)phenyl)thio)acetamide], the “ke, observed rate constant” value is listed as “A (ke is equal to or less than 1.0)”.

`CC(C)CNC(=O)CSc1cc(Cl)c(Cc2ccc(O)c(C(C)C)c2)c(Cl)c1` [Compound 185, 2-((3,5-dichloro-4-(4-hydroxy-3-isopropylbenzyl)phenyl)thio)-N-isobutylacetamide]: the “ke, observed rate constant” value is “NC”.

On to `CCNC(=O)CSc1cc(Cl)c(Cc2ccc(O)c(C(C)C)c2)c(Cl)c1` [Compound 186, 2-((3,5-dichloro-4-(4-hydroxy-3-isopropylbenzyl)phenyl)thio)-N-ethylacetamide], for which the “ke, observed rate constant” value was “A (ke is equal to or less than 1.0)”.

Turning to `CCNC(=O)CSc1cc(Cl)c(Cc2ccc(O)c(C(C)C)c2F)c(Cl)c1` [Compound 187, 2-((3,5-dichloro-4-(2-fluoro-4-hydroxy-3-isopropylbenzyl)phenyl)thio)-N-ethylacetamide], the “ke, observed rate constant” value is “A (ke is equal to or less than 1.0)”.

For the compound `CNC(=O)CSc1cc(Cl)c(Cc2ccc(O)c(C(C)C)c2F)c(Cl)c1` [Compound 188, 2-((3,5-dichloro-4-(2-fluoro-4-hydroxy-3-isopropylbenzyl)phenyl)thio)-N-methylacetamide], the “ke, observed rate constant” value is “B (ke is greater than 1.0 and less than or equal to 2.5)”.

Consider `CCNC(=O)CSc1cc(Cl)c(Cc2ccc(O)c(C(C)C)c2)c(Cl)c1F` [Compound 189, 2-((3,5-dichloro-2-fluoro-4-(4-hydroxy-3-isopropylbenzyl)phenyl)thio)-N-ethylacetamide], for which the “ke, observed rate constant” value is recorded as “A (ke is equal to or less than 1.0)”.

For the compound `CNC(=O)CSc1cc(Cl)c(Cc2ccc(O)c(C(C)C)c2)c(Cl)c1F` [Compound 190, 2-((3,5-dichloro-2-fluoro-4-(4-hydroxy-3-isopropylbenzyl)phenyl)thio)-N-methylacetamide], the “ke, observed rate constant” value was “B (ke is greater than 1.0 and less than or equal to 2.5)”.

`CC(C)c1cc(Cc2c(Cl)cc(CSCC(=O)N(C)C)cc2Cl)ccc1O` [Compound 191, 2-((3,5-dichloro-4-(4-hydroxy-3-isopropylbenzyl)benzyl)thio)-N,N-dimethylacetamide]: the “ke, observed rate constant” value is on record as “NC”.

Consider `CNC(=O)CSCc1cc(Cl)c(Cc2ccc(O)c(C(C)C)c2)c(Cl)c1` [Compound 193, 2-((3,5-dichloro-4-(4-hydroxy-3-isopropylbenzyl)benzyl)thio)-N-methylacetamide], for which the “ke, observed rate constant” value was “NC”.

As for `CC(C)c1cc(Cc2c(Cl)cc(SCC(=O)N(C)C)cc2Cl)ccc1O` [Compound 194, 2-((3,5-dichloro-4-(4-hydroxy-3-isopropylbenzyl)phenyl)thio)-N,N-dimethylacetamide], the “ke, observed rate constant” value is “NC”.
